Reference: patent publication US11344634B2, “Activity based probe and uses thereof for imaging” (Yissum Research Development Company of the Hebrew …, priority 2016, dated 2022)

How the values were obtained:
[1] = molecular target: T1, Recombinant human Cathepsin L (Homo sapiens, UniProt P07711); assay: Recombinant cathepsin labeling, competition assay, iodinated probes; type: biochemical; details: probe 2 hour, then GB123 30 minutes
T1 construct: made in house
Description: (§1) Recombinant cathepsin labeling, competition assay: Recombinant human Cathepsin L (0.5 μg), Cathepsin B (0.5 μg) were incubated the indicated concentrations of targeted or control iodinated activity based probes (CT-ABP) in reaction buffer (50 mM acetate, 2 mM DTT and 5 mM MgCl2, pH 5.5) for 120 minutes at 37° C. After probe incubation, residual cathepsin activity was labeled with GB123 for 30 minutes. The reaction was stopped by addition of sample buffer ×4 (40% glycerol, 0.2 M Tris/HCl, pH 6.8, 20% beta-mercaptoethanol, 12% SDS and 0.4 mg/ml bromophenol blue). Samples were then boiled, separated on a 12.5% SDS gel and scanned for fluorescence by a Typhoon scanner FLA 9500 at excitation/emission wavelengths of 645/670 nm.
(§2) The biochemical evaluation of the new probes started with evaluation for their ability to bind recombinant human cathepsins B or Cathepsin L. Recombinant human cathepsins B was incubated with increasing concentrations of the probes for 2 hour. Residual activity was detected by a fluorescently labeled cathepsin ABP GB 123 that was added to samples for 30 minutes at r.t. […] Next, residual cathepsins activity was labeled by GB123 1 μM during 2 hours. Cell lysates were separated on SDS-PAGE followed by scanning the gel for fluorescence to visualize labeling of residual cathepsins activity by GB123 (FIGS. 11C and 11F).
(§3) Recombinant human cathepsins B was incubated with increasing concentrations of the probes for 2 hour. Residual activity was detected by a fluorescently labeled cathepsin ABP that was added to samples for 30 minutes at r.t. The free probe was separated from the enzyme-probe complex by SDS PAGE, the detection of the probe-enzyme complex was done by a fluorescent scanning of the gel at Cy5 fluorescence, FIG. 12. […] To assure that the binding is dependent on protease activity, a control were performed HG87, HG94 and HG97 lacking the reactive moiety. […] Evaluation of I-CT-ABPs in intact cells. […] Next, residual cathepsins activity was labeled by GB123 1 μM during 2 hours. Cell lysates were separated on SDS-PAGE followed by scanning the gel for fluorescence at: 645/670 nm to visualize labeling of residual cathepsins activity by GB123 (FIG. 12E). […] Recombinant human cathepsins B was incubated with increasing concentrations of the Cy5 labelled probes for 2 hour. The free probe was separated from the enzyme-probe complex by SDS PAGE, the detection of the probe-enzyme complex was done by a fluorescent scanning of the gel at Cy5 fluorescence. […] The binding of the all the Cy5 labelled probes occur in an activity-dependent manner. Direct labeling in intact cells. The assay was carried out by incubation of NIH-3T3 cells with Cy5 labelled iodine tagged probes for 24 hours. Cell lysates were separated on SDS-PAGE followed by scanning the gel for fluorescence at: 645/670 nm to visualize labeling of residual cathepsins activity by GB123. […] For the PEGylated I-CT-ABP HG93 and HG32 also observed that recombinant cathepsin activity and cell permeability, it's difficult to quantify the selective inhibition due to enhanced permeation and retention (EPR) effect.

[2] = molecular target: T2, Recombinant human Cathepsin B (Homo sapiens, UniProt P07858); assay: as above; type: biochemical; details: probe 2 hour, then GB123 30 minutes
T2 construct: made in house
Description: as §1, §2, §3

NIH-3T3 cells = assay: In vitro cytotoxicity, methylene blue assay, I-CT-ABPs; type: cell-based, mouse; details: NIH-3T3, 10 μM, 48 hours
Description: In vitro Cytotoxicity Assays. Methylene Blue assays were performed in 96-well plates; NIH-3T3 cells (5×10^3 cells/well) were seeded in a 96-well plate one day before treatment. Cells were treated with indicated concentrations of targeted IABNs and non-targeted nanomaterials that were pre-dissolved in 0.1% DMSO in the culture medium. Cells were incubated for 24 h and 48 h and cells were fixed with 2.5% glutaraldehyde incubation for 10 min. Cells were washed with water and borate buffer (0.1M, pH=8.5), Cell number was determined by staining cells with the addition of 100 μl per well of 1% Methylene Blue in borate buffer, followed by incubation at room temperature for at least 1 hour. The stain was aspirated and the plates rinsed by immersion in water, followed by immersion in deionized water. The plates were air-dried and then the stain was released from cells by the addition of 200 μl/well 0.1 N HCl solutions. After 1 hour incubation at 37° C., the absorbance of each […] at 620 nm was determined on a Cytation 3 microplate reader.
Cytotoxicity study of the I-CT-ABPs, the toxic response to the systematically varied physico-chemical properties of successive PAMAM dendrimers. In vitro cytotoxicity of I-CT-ABPs to NIH-3T3 cell lines was investigated. Viability assay was performed for assessment of the cytotoxicity of each I-CT-ABP to the NIH-3T3 cell lines using the methylene blue method.

T1 sequence (P07711 114-333): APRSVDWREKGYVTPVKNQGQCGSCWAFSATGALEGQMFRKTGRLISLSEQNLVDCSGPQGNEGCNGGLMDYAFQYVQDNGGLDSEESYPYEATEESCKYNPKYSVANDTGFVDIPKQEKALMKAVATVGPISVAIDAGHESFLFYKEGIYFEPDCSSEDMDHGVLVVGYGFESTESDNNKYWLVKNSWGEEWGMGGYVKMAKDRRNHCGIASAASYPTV

| Substance | binding to recombinant cathepsin L, competitive assay [1] | binding to recombinant cathepsin B, competitive assay [2] | toxicity (viability assay) (NIH-3T3 cells) |
| --- | --- | --- | --- |
| (IPA)16(PEG-4)16-G3 [HG94] | no inhibition was detected | no inhibition was detected |  |
| (IPA)16(PEG-750)16-G3 [HG97] | no inhibition was detected | no inhibition was detected |  |
| (IPA)16(NH2)16-G3 [HG87] | no inhibition was detected | no inhibition was detected | slight toxicity |
